Consider 14 compounds from patent publication US12325715B2, “Fluorous metal chelates compositions” (The Regents of the University of California, priority 2018, dated 2025).

The nature of data set [1]: Intramolecular 19F NMR relaxation rates at 9.4 T. Particulars: 5 CF2 groups (precursors and Ga3+ chelate), ± s.e.m. The format is physicochemical. An excerpt:
Intramolecular ^19F NMR relaxometry measurements of 5a isomers further confirmed the structural analyses. We observed that among Fe3+ chelates, 5a OOO isomer had the highest, and 5a PPP isomer had the lowest, R1 and R2 values (Table 3). Ortho-substitution caused a more drastic intramolecular PRE, by ˜3 orders of magnitude, compared to para-substitution due to the closer proximity of the Fe3+ paramagnetic center to the ortho position ([…]) compared to the para position ([…]).
NMR spectra and relaxation rates were recorded on a Bruker Ascend 400 MHz (9.4 T) spectrometer (Billerica, MA). Additional relaxation rate measurements were performed at 3 T using a GE750 (General Electric, Milwaukee, WI) clinical MRI system equipped with a custom dual-channel ^19F/1H 72 mm diameter volume coil (RAPID Biomedical, Rimpar, Germany). The ^19F NMR spectra were referenced to an internal standard, sodium trifluoroacetate (NaTFA, 0.1 wt %, −76.00 ppm, Sigma-Aldrich, T6508), which was placed in a separate sealed capillary tube within the NMR tube. Relaxation measurements were performed using a standard inversion recovery pulse sequence and a Carr-Purcell-Meiboom-Gill sequence with echo-time (TE) values in 12 linear increments. The T1 and T2 values were obtained by nonlinear fitting using MNova 6.0.2 software (Mestrelab, Escondido, CA). Fit errors were less than 5% of T1 and T2 values. For quantitative peak measurements, spectra were acquired using calibrated 90° pulses, 32,000 complex points, spectral window 0 to −200 ppm, relaxation delay 2.5 s, and 128 averages. Spectra were processed in MNova with manual phase correction and Whittaker smoother baseline correction (filter=1 ppm). Relaxation parameters were measured for six middle CF2 peaks of PFOB, spanning ˜10 ppm, which account for 12 out of 17 F atoms in the molecule. To assay nanoemulsion uptake (^19F/cell) using NMR, an aliquot of 1×10^6 cells were pelleted and resuspended in 0.1 mL of lysis solution (0.5% Triton X, 100 mM NaCl, 20 mM Tris, 1 mM EDTA) and reference compound NaTFA (0.745 mg/mL)/D2O was added to 5 mm NMR tube. The integrated ratio of PFOB fluorine peaks to NaTFA singlet fluorine peak at −76.00 ppm determined the amount of ^19F in the cell pellet and the ^19F/cell was calculated.
NMR measurements. NMR spectra and relaxation rates were recorded on a Bruker Ascend 400 MHz (9.4 T) spectrometer (Billerica, MA). […] For quantitative peak measurements, spectra were acquired using calibrated 90° pulses, 32,000 complex points, spectral window 0 to −200 ppm, relaxation delay 2.5 s, and 128 averages. […] Relaxation parameters were measured for six middle CF2 peaks of PFOB, spanning ˜10 ppm, which account for 12 out of 17 F atoms in the molecule. […]

The nature of data set [2]: Kinetics of emulsion metalation with metal salts (UV-Vis). The format is physicochemical. On the procedure: Strong absorbance of aromatic diketone and its complexes permits facile kinetic investigation of metalation rates. In a typical measurement, emulsion from example 4 was diluted to 70 uM diketone (excess ligand, modeling radiolabeling conditions) into a solution of chosen pH and treated with 10 uM metal cations of relevance to medical imaging, including Fe^3+ (MRI), Cu^2+ (PET), Ga^3+ (PET, SPECT), Sc^3+ (PET), and In^3+ (SPECT). In all cases, UV-Vis spectral changes indicative of metal uptake into the fluorous phase were detected, proportional in magnitude to the amount of metal. For some metals, kinetic analysis was performed. The reaction time course fit well to a pseudo-first-order process with rate constant kobs (Table 1).

A short description of data set [3]: 19F R1 relaxation leakage test of metalated emulsions with EDTA at 37 °C. The format is physicochemical. The settings on record: small fluorinated diketones. An excerpt:
Decrease in relaxation rate ^19F R1 would indicate sequestration of Fe^3+ to the aqueous phase, where it is too far from fluorine-19 nuclei to have an effect on ^19F R1.
It may be necessary for sufficient stability to use fluorinated diketones with heavily fluorinated substituents that are well-miscible with other fluorinated agents known in the art to be useful for ^19F MRI.

The conditions of data set [4]: cited from earlier work.
For data set [5] the following is noted: 3 T; cited from earlier work.
Data set [6] is described as follows: Intermolecular 19F NMR relaxometry and susceptibility shift in PFOB. The format is physicochemical. Particulars: neat PFOB. An excerpt:
We screened the impact of various cations bound to SALTAME 5a and dissolved in PFOB via NMR relaxometry and susceptibility shift measurements (Table 4). Of the period-4 cations tested (V3+, Cr3+, Mn2+, Fe3+, Co2+, Cu2+, Ni2+, Zn2+, Ga3+), only Mn4+, Fe3+, Co3+, and Ga3+ formed stable and separable (by column chromatography) chelates with SALTAME. […] The diamagnetic Ga3+ chelate had little relaxation effects or shift for PFOB. […] Mn4+ changed r1, r2 and susceptibility shift, but to a much lesser extent than Fe3+.
The longitudinal and transverse ^19F relaxation rates of the Fe3+ chelate, 5a POP, was further evaluated as a function of iron concentration at the clinically-relevant field strength of 3 T yielding relaxivities r1 and r2 of 0.56 s−1 mM−1 and 1.67 s−1 mM−1, respectively, compared to 0.50 s−1 mM−1 and 1.07 s−1 mM−1 values of r1 and r2 at 9.4 T, respectively. […]
NMR spectra and relaxation rates were recorded on a Bruker Ascend 400 MHz (9.4 T) spectrometer (Billerica, MA). […] For quantitative peak measurements, spectra were acquired using calibrated 90° pulses, 32,000 complex points, spectral window 0 to −200 ppm, relaxation delay 2.5 s, and 128 averages. […] Relaxation parameters were measured for six middle CF2 peaks of PFOB, spanning ˜10 ppm, which account for 12 out of 17 F atoms in the molecule. […]

Data set [7] deals with RAW cells. In words: NAO flow cytometry assay for cytotoxicity (apoptosis). The format is cell-based, murine. The settings on record: 16 h labeling, compared to unlabeled cells. Here is the method: We investigated the potential effect of P-PFOB labeling on RAW cell viability and phenotype (FIG. 4A-FIG. 4D). To study cytotoxicity, we used a flow cytometry assay for apoptosis (FIGS. 4A-4C) using 10-N-nonyl acridine orange (NAO).^20 As a positive control to induce oxidative stress, 10% ethanol was added to the cell media. […] Side-scatter is routinely used in flow cytometry to distinguish cell types by granularity. Labeled cells often display increased granularity with internalization of PFC droplets. To assay cell phenotype, we used flow cytometry to monitor potential changes in cell surface CD86 expression as a marker for macrophage activation, where increased levels indicated a pro-inflammatory response to label. Lipopolysaccharide (LPS) treatment was used as a positive control to induce a pro-inflammatory phenotype.
Viability assay. 10-N-nonyl acridine orange (NAO) was obtained from Invitrogen (A1372, Carlsbad, CA). NE labeled and control RAW cells were stained with 100 ng/ml of NAO for 15 minutes followed by washes according to manufacturer's instructions. As a positive control, cells were stressed by incubation with 10% ethanol at 37° C. containing 5% CO2 for 90 minutes before NAO staining. Green fluorescence from NAO dye (emission max at 520 nm) was detected using flow cytometry (LSR Fortessa, BD Biosciences).

Setting [8] is: final [M3+] 10 uM, final [ligand] 70 uM, pH 2.1 (8 mM HCl).

Regarding `O=Cc1cc(C(F)(F)C(F)(F)C(F)(F)C(F)(F)C(F)(F)C(F)(F)F)ccc1O` [3a, 5-Perfluorohexyl-salicylaldehyde], in data set [1], the “R1 (intramolecular 19F)” value was 1.33 ± 0.01 s⁻¹ and the “R2 (intramolecular 19F)” value is 1.75 ± 0.01 s⁻¹.
On the same counts, the results for `O=Cc1cccc(C(F)(F)C(F)(F)C(F)(F)C(F)(F)C(F)(F)C(F)(F)F)c1O` [3b, 3-Perfluorohexyl-salicylaldehyde] are 0.87 ± 0.01 s⁻¹ and 1.12 ± 0.01 s⁻¹.
As for `[Cl][Fe]([Cl])[Cl]` [FeCl3], the kobs in data set [2] (final [M3+] 5 uM, final [ligand] 70 uM, pH 2.1 (8 mM HCl)) amounted to 0.79 min⁻¹; in data set [2] (setting [8]), 0.70 min⁻¹.
In the case of `[Cl][Ga]([Cl])[Cl]` [GaCl3], the kobs in data set [2] (setting [8]) was 0.043 min⁻¹.
With `O=C(CC(=O)C(F)(F)F)c1ccccc1` [H-bta], in data set [3], the enhancing relaxation result is on record as “highly effective”; the “stability under EDTA competition and cell labeling” value is given as “not stable enough”.
For `CC(C)(C)C(=O)CC(=O)C(F)(F)C(F)(F)C(F)(F)F` [H-fod] the same measures were “highly effective” and “not stable enough”.
Turning to `O=C(CC(=O)C(F)(F)F)C(F)(F)F` [H-hfp], in data set [3], the enhancing relaxation result is recorded as “highly effective”; the “stability under EDTA competition and cell labeling” value is reported as “not stable enough”.
On the same counts, the results for `C/C(O)=C/C(=O)C(F)(F)C(F)(F)C(F)(F)F` [H-hhd] are “highly effective” and “not stable enough”.
On the same counts, the results for `C/C(O)=C/C(=O)C(F)(F)C(F)(F)C(F)(F)C(F)(F)C(F)(F)C(F)(F)F` [H-tdd] are “highly effective” and “not stable enough”.
On the same counts, the results for `O=C(CC(=O)C(F)(F)F)c1cccs1` [H-tta] are “highly effective” and “not stable enough”.
In the case of `[Cl-].[Cl-].[Cl-].[In+3]` [InCl3], the kobs in data set [2] (final [M3+] 2 uM, final [ligand] 14 uM, pH ~5 (unbuffered H2O)) was over 10 min⁻¹; in data set [2] (final [M3+] 10 uM, final [ligand] 70 uM, pH 7.4 HEPES) it was 0.0322 min⁻¹.
On to `FC1(F)OC(F)(F)C(F)(F)OC(F)(F)C(F)(F)OC(F)(F)C(F)(F)OC(F)(F)C(F)(F)OC1(F)F` [PFCE, perfluoro-15-crown-5-ether], for which, in data set [4], the “half-life in vivo (body)” value is on record as over 100 days. The T1 in data set [5] is recorded as about 0.9 ms.
`FC(F)(F)C(F)(F)C(F)(F)C(F)(F)C(F)(F)C(F)(F)C(F)(F)C(F)(F)Br` [PFOB, perfluorooctylbromide]: the “half-life in vivo (body)” value in data set [4] is 3 to 8 days. Moreover, in data set [5], the T1 is about 1200 ms. The results for the R1 in data set [6] (3 T) and in data set [6] (9.4 T) were 0.79 s⁻¹ and 1.4 s⁻¹, respectively.
As to `CCO` [ethanol], the “cytotoxicity (NAO apoptosis assay)” value in data set [7] is “display cytotoxicity”.
